From patent publication US7625713B2, “Process for identifying a ligand that binds to the NEP binding site for the SMR1 pentapeptide” (Institut Pasteur, priority 2000, dated 2009)
Where a SMILES comes first, the peptide text is derived from it.

Columns and labels:
[1] = target: T1, purified rabbit renal NEP (Oryctolagus cuniculus, UniProt P08049); assay: Substance P catabolism by purified rabbit renal NEP; type: biochemical; settings: substance P as substrate, read-out: inhibition of substance P catabolism by the soluble enzyme
T1 construct: purified rabbit renal NEP; from tissue; host or cells: rabbit kidney (purified enzyme)
T1 sequence (P08049 1-750): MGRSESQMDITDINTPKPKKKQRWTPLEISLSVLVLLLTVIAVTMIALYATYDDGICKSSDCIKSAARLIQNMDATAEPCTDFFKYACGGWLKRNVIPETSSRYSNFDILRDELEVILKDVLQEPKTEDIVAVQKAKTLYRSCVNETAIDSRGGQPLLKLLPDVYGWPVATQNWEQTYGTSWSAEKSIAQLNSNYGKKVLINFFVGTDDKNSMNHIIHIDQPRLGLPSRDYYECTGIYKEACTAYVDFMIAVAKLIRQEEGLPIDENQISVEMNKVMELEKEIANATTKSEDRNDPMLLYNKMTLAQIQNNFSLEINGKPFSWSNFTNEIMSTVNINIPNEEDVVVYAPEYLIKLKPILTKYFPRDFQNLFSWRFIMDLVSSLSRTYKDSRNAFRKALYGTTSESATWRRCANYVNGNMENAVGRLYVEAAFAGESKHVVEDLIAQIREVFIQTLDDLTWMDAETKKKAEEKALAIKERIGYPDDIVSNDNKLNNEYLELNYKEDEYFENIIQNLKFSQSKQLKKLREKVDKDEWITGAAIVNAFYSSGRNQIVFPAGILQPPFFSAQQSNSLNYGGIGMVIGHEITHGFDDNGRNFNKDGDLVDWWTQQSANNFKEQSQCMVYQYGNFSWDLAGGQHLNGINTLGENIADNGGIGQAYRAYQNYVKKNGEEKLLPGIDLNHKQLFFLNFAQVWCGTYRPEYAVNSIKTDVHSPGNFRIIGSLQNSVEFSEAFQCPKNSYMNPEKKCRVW

NEP = target: T2, NEP (Rattus norvegicus, UniProt P07861); assay: 3H-Substance P hydrolysis by rat spinal cord slices; type: biochemical; settings: 10 μM combined with GEMSA (10 μM) and DPPIV inhibitor (10 μM), 25° C., read-out: inhibition of Substance P degradation
T2 construct: incubations of membrane and fresh tissue slice preparations from nervous tissues; from tissue; host or cells: dorsal spinal cord of male Wistar rats (fresh slices or 100 000 x g membrane fraction)
T2 sequence (P07861 1-750): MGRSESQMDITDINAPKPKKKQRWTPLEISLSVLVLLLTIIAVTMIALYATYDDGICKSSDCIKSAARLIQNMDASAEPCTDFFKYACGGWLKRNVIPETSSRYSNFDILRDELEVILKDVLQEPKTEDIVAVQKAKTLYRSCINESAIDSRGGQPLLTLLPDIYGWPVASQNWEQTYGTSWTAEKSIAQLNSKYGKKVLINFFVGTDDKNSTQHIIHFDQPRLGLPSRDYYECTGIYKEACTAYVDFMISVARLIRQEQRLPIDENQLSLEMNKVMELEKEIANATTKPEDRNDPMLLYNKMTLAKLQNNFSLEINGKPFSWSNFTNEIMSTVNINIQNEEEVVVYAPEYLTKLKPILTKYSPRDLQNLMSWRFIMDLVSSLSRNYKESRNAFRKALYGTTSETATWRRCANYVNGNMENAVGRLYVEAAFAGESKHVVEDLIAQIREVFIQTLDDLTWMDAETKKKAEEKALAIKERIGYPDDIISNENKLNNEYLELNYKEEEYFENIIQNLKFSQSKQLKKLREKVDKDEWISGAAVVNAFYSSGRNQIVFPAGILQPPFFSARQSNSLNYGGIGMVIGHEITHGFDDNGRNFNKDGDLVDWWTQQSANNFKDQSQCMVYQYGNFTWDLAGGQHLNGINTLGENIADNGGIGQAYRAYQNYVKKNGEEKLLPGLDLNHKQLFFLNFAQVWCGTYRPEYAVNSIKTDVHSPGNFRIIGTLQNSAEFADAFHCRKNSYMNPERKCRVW
Method: For the experiments of analysis of the NEP peptidase activity, an ex vivo model using incubations of membrane and fresh tissue slice preparations from nervous tissues that are known to be appropriate for exploring NEP peptidase activity: i.e. the dorsal zone of rat spinal cord, was first developed. […] (NEN, 12.5-25 nM) were used.
The objective was to measure the NEP-specific endoproteolysis of these substrates.

male SPF Wistar/AF rats = assay: Aversive light stimulus avoidance test (ALSAT); type: in vivo, rat; settings: 50 μg/kg, I.V.; for Total number of times the two levers were pressed / Number of times AL pressed / Number of times IL pressed: mean ± SEM; for Number of times AL pressed: active lever; for Number of times IL pressed: inactive lever
Method: Twenty four male SPF Wistar/AF rats weighing from 300 to 320 g were used. Upon reception, the rats were weighed, marked and distributed, in groups of 3, into F-type polycarbonate cages. The animals were housed in an air-conditioned animal house at a temperature of 22-24° C. Food and drink was available to the rats ad libitum. They were subjected to a 12-hour light/dark cycle (light from 8 pm to 8 am).
After a period of familiarization with the laboratory conditions of one week, the 24 rats were randomly divided into 2 groups (n=12). The rats from the various groups were all handled in the same way and under the same conditions.
The rat is placed in the cage for 20 minutes and the number of times each lever is pressed is counted during the experiment.
This model uses the aversion of the rat to a brightly lit environment. During the familiarization session and the learning session, the rat learns to control the aversive light environment of the test device in the context of operant conditioning: the animal learns to press the active lever in order to obtain periods of darkness.
The learning test is made up over two sessions: • Session 1, familiarization with the experimental device (day 1); • Session 2, learning test (day 2).
The QHNPR (SEQ ID NO: 2) peptide is suspended in a proportion of 500 μg per 5 ml of 0.01 N acetic acid, and then diluted with PBS in order to be administered at the dose of 50 μg/kg, via the i.v. route, in the dorsal caudal vein of the rat, 1 minute before the test.
A two-sided probability unpaired t-test was used to compare the lever-pressing activity of the two groups of rats.
The results are expressed as mean±standard error of the mean (SEM).

- inhibition at 5 µM [1]: 46%
- inhibition at 10 µM (NEP): > 90%
Structure (SMILES): N=C(N)NCCC[C@H](NC(=O)[C@@H]1CCCN1C(=O)[C@H](CC(N)=O)NC(=O)[C@H](Cc1c[nH]cn1)NC(=O)[C@@H](N)CCC(N)=O)C(=O)O [sialorphin, Gln-His-Asn-Pro-Arg] (H-QHNPR-OH; N-terminus and C-terminus assumed)
- Total number of times the two levers were pressed (male SPF Wistar/AF rats; Session 1, 1 minute before the test): 10.08 ± 1.98
- Number of times AL pressed (male SPF Wistar/AF rats; Session 1): 4.83 ± 1.02
- Number of times IL pressed (male SPF Wistar/AF rats; Session 1): 5.25 ± 1.14
- Number of times AL pressed (male SPF Wistar/AF rats; Session 2): 2.67 ± 0.47
- Number of times IL pressed (male SPF Wistar/AF rats; Session 2): 2.58 ± 0.94
- Total number of times the two levers were pressed (male SPF Wistar/AF rats; Session 2): 5.25 ± 5.09
- Distinction between the levers (male SPF Wistar/AF rats; both test sessions): no distinction between the two levers
